The labels stand for the following.
T1: efDHQase (3-dehydroquinate dehydratase from Enterococcus faecalis; also DEF) (Enterococcus faecalis, UniProt P36923)
T1 construct: gene aroD; full-length aroD in modified pET-15b, N-terminal 10xHis tag removed with thrombin; expressed in E. coli aroD- pTara; homodimer; catalytic Lys170
T1 sequence (P36923 1-253): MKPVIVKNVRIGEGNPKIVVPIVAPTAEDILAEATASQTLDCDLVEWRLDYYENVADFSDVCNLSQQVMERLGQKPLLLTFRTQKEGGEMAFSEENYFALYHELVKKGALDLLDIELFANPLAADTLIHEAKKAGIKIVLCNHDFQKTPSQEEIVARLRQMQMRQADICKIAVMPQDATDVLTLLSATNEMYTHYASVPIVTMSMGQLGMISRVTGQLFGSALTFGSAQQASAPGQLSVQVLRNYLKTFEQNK

B1: efDHQase (3-dehydroquinate dehydratase from Enterococcus faecalis; also DEF) (Enterococcus faecalis V583) (protein)
chain: T1 sequence (P36923 1-253)
notes: full-length aroD in modified pET-15b, N-terminal 10xHis tag removed with thrombin; expressed in E. coli aroD- pTara; homodimer; catalytic Lys170

By Ki is commonly meant the equilibrium dissociation constant of an inhibitor or competing ligand from its target. Lower therefore signals higher affinity. As a reminder, the Km is the substrate concentration at which the rate is half of its maximum. The term kcat denotes the number of substrate molecules converted per active site and unit of time at saturation.

One data set concerns the target T1, efDHQase (3-dehydroquinate dehydratase from Enterococcus faecalis; also DEF). The data set is described as follows: efSHD-coupled NADPH oxidation assay, […] nm.
Conditions: not given
It counts as biochemical.
`O=c1ccc2ccc(O)cc2o1` [7-Hydroxycoumarin] registered a Ki of 42 ± 19 µM.

On to `O=c1ccc2cc(O[C@@H]3O[C@H](CO)[C@@H](O)[C@H](O)[C@H]3O)c(O)cc2o1` [Aesculine], for which the Ki worked out at 180 ± 38 µM.

Turning to `O=c1c(O)c(-c2ccc(O)c(O)c2)oc2c(O[C@@H]3O[C@H](CO)[C@@H](O)[C@H](O)[C@H]3O)c(O)cc(O)c12` [Gossypin], the affinity, expressed as Ki, was 79 ± 14 µM.

For the molecule `O=c1cc(-c2ccc(O)c(O)c2)oc2cc(O)c([C@@H]3O[C@H](CO)[C@@H](O)[C@H](O)[C@H]3O)c(O)c12` [Homoorientin], the Ki stood at 140 ± 11 µM.

The molecule `O=c1cc(-c2ccc(O)c(O[C@@H]3O[C@H](CO)[C@@H](O)[C@H](O)[C@H]3O)c2)oc2cc(O[C@@H]3O[C@H](CO)[C@@H](O)[C@H](O)[C@H]3O)cc(O)c12` [Luteolin-3′-7-diglucoside] yielded a Ki of 89 ± 3 µM.

In turn, `O=c1cc(-c2ccc(O)c(O)c2)oc2cc(O[C@@H]3O[C@H](CO)[C@@H](O)[C@H](O)[C@H]3O)cc(O)c12` [Luteolin-7-glucoside] displayed a Ki of 69 ± 16 µM.

In turn, `O=C(/C=C/c1ccc(O)c(O)c1)c1ccc(O[C@@H]2O[C@H](CO)[C@@H](O)[C@H](O)[C@H]2O)c(O)c1O` [Marein] gave a Ki of 340 ± 79 µM.

`C[C@@H]1O[C@@H](O[C@H]2[C@H](Oc3cc(O)c4c(=O)cc(-c5ccc(O)cc5)oc4c3)O[C@H](CO)[C@@H](O)[C@@H]2O)[C@H](O)[C@H](O)[C@H]1O` [Rhoifolin] returned an inhibitory constant (Ki) of 19 ± 9 µM.

With `C[C@@H]1O[C@@H](OC[C@H]2O[C@@H](Oc3c(-c4ccc(O)c(O)c4)oc4cc(O)cc(O)c4c3=O)[C@H](O)[C@@H](O)[C@@H]2O)[C@H](O)[C@H](O)[C@H]1O` [Rutin], the affinity corresponds to a Ki of 210 ± 28 µM.

Substrate in a further data set: O=C1C[C@@](O)(C(=O)O)C[C@@H](O)[C@@H]1O
The data set is described as follows: purified protein. As to conditions: 0.25 mM NADPH, 50 mM HEPES pH 7.5, 25°C, 10 nM efSHD as coupling enzyme. It counts as biochemical, Enterococcus faecalis.
For B1, the Michaelis constant (Km) turned out to be 65 µM and the kcat was 110 s⁻¹.
